The values below come from ChEMBL document CHEMBL3045519, “Selective Herbicidal Activity of 3, 5-Dichloropyridyloxy-phenoxypropionamidoxyacetic Acid Derivatives between Wheat and Wild Oat” (J Pestic Sci, 1996).

The structures appear in SMILES notation. Active and inactive are the calls of the source. The rule behind the calls is not given here.

Series [1] has as its system Triticum aestivum. The experiment in a line: Phytotoxicity against Triticum aestivum (wheat) under greenhouse conditions at 40 g/a at 1.5-leaf stage measured after 3 weeks by pot test. The class given is organism-based. To be noted: in vivo, 504 h.
The subject of series [2] is Avena fatua. Description: Post-emergence herbicidal activity against Avena fatua under greenhouse conditions at 40 g/a at 1.5-leaf stage measured after 3 weeks by pot test. It counts as functional, organism-based.
Series [3] has as its system Avena fatua. Description: Post-emergence herbicidal activity against Avena fatua under greenhouse conditions at 10 g/a at 1.5-leaf stage measured after 3 weeks by pot test. The class given is functional, organism-based.
Series [4] concerns Triticum aestivum. Description: Phytotoxicity against Triticum aestivum (wheat) under greenhouse conditions at 2.5 g/a at 1.5-leaf stage measured after 3 weeks by pot test. It counts as organism-based. To be noted: in vivo, 504 h.
Series [5] deals with Avena fatua. The experiment in a line: Post-emergence herbicidal activity against Avena fatua under greenhouse conditions at 2.5 g/a at 1.5-leaf stage measured after 3 weeks by pot test. It counts as functional, organism-based.
Series [6] deals with Triticum aestivum. Description: Phytotoxicity against Triticum aestivum (wheat) under greenhouse conditions at 5 g/a at 1.5-leaf stage measured after 3 weeks by pot test. It counts as organism-based. To be noted: in vivo, 504 h.
For series [7], the system named is Avena fatua. Description: Post-emergence herbicidal activity against Avena fatua under greenhouse conditions at 5 g/a at 1.5-leaf stage measured after 3 weeks by pot test. The class given is functional, organism-based.
Series [8] deals with Avena fatua. Description: Post-emergence herbicidal activity against Avena fatua under greenhouse conditions at 1.3 g/a at 1.5-leaf stage measured after 3 weeks by pot test. The class given is functional, organism-based.
Series [9] deals with Avena fatua. The experiment in a line: Post-emergence herbicidal activity against Avena fatua under greenhouse conditions at 0.6 g/a at 1.5-leaf stage measured after 3 weeks by pot test. It counts as functional, organism-based.
Series [10] relates to Triticum aestivum. Description: Phytotoxicity against Triticum aestivum (wheat) under greenhouse conditions at 10 g/a at 1.5-leaf stage measured after 3 weeks by pot test. To be noted: in vivo, 504 h. The class given is organism-based.
For series [11], the system named is Triticum aestivum. The experiment in a line: Phytotoxicity against Triticum aestivum (wheat) under greenhouse conditions at 0.6 g/a at 1.5-leaf stage measured after 3 weeks by pot test. The class given is organism-based. To be noted: in vivo, 504 h.
The subject of series [12] is Triticum aestivum. Description: Phytotoxicity against Triticum aestivum (wheat) under greenhouse conditions at 1.3 g/a at 1.5-leaf stage measured after 3 weeks by pot test. To be noted: in vivo, 504 h. It counts as organism-based.
Series [13] deals with Avena fatua. Description: Post-emergence herbicidal activity against Avena fatua under greenhouse conditions compound treated at 1.5-leaf stage measured after 3 weeks by pot test relative to diclofop-methyl. It counts as functional.
Series [14] has as its system Triticum aestivum. Description: Phytotoxicity against Triticum aestivum (wheat) under greenhouse conditions at 0.3 g/a at 1.5-leaf stage measured after 3 weeks by pot test. It counts as organism-based. To be noted: in vivo, 504 h.
Series [15] concerns Avena fatua. Description: Post-emergence herbicidal activity against Avena fatua under greenhouse conditions at 0.3 g/a at 1.5-leaf stage measured after 3 weeks by pot test. It counts as functional, organism-based.

`CC(Oc1ccc(Oc2ncc(Cl)cc2Cl)cc1)C(=O)N(C)C` (stereo not given): the Activity entry with Triticum aestivum [1] was “Non-toxic”. Besides, the outcome in the series on Avena fatua [2] was inactive.
On to `COC(=O)C(C)Oc1ccc(Oc2ccc(Cl)cc2Cl)cc1` (stereo not given) [DICLOFOP-METHYL], for which the result with Avena fatua [3], in the series with Avena fatua [5] and with Avena fatua [7] was Active. For the same compound, the Activity result with Triticum aestivum [4], with Triticum aestivum [6], with Triticum aestivum [10], in the series on Triticum aestivum [11] and in the series with Triticum aestivum [12] was “Non-toxic” each time. Also, the result in the series on Avena fatua [8] and in the series on Avena fatua [9] was inactive.
As for `CCNC(=O)CNC(=O)C(C)Oc1ccc(Oc2ncc(Cl)cc2Cl)cc1` (stereo not given), the Ratio with Avena fatua [13] was found to be 2. Further, the Activity entry with Triticum aestivum [4], in the series on Triticum aestivum [6], in the series on Triticum aestivum [11], in the series with Triticum aestivum [14] and in the series on Triticum aestivum [12] was “Non-toxic” throughout. Moreover, the outcome in the series on Avena fatua [5], in the series on Avena fatua [7], in the series with Avena fatua [8], in the series with Avena fatua [9] and in the series with Avena fatua [15] was Active.
For `CC(Oc1ccc(Oc2ccc(Cl)cc2Cl)cc1)C(=O)O` (stereo not given) [DICLOFOP], the result in the series on Avena fatua [3], with Avena fatua [5], with Avena fatua [7] and with Avena fatua [8] was Active. In addition, the Activity entry in the series on Triticum aestivum [4], in the series on Triticum aestivum [6], in the series on Triticum aestivum [10] and with Triticum aestivum [12] was “Non-toxic” each time.
`CC(Oc1ccc(Oc2ccc(Cl)cc2Cl)cc1)C(=O)NOCC(=O)O` (stereo not given): the Activity result with Triticum aestivum [1] was “Non-toxic”. In addition, the result in the series on Avena fatua [2] was inactive.
`CC(Oc1ccc(Oc2ncc(Cl)cc2Cl)cc1)C(=O)O` (stereo not given) [PYRIPHENOP]: the Activity result is reported as “Toxic” in the series on Triticum aestivum [4], “Toxic” in the series with Triticum aestivum [11], “Non-toxic” with Triticum aestivum [14] and “Toxic” with Triticum aestivum [12]. Moreover, the result with Avena fatua [5], in the series with Avena fatua [8], with Avena fatua [9] and in the series with Avena fatua [15] was Active.
For the compound `CC(Oc1ccc(Oc2cnc3cc(Cl)ccc3n2)cc1)C(=O)O` (stereo not given) [QUIZALOFOP], the Activity entry in the series on Triticum aestivum [4], with Triticum aestivum [11], in the series on Triticum aestivum [14] and in the series with Triticum aestivum [12] was “Toxic” in each case. In addition, the result with Avena fatua [5], in the series on Avena fatua [8], with Avena fatua [9] and with Avena fatua [15] was Active.
Consider `CC(Oc1ccc(Oc2ncc(Cl)cc2Cl)cc1)C(=O)NN` (stereo not given), for which the Activity entry in the series with Triticum aestivum [4], in the series with Triticum aestivum [11], in the series with Triticum aestivum [14] and in the series on Triticum aestivum [12] was “Non-toxic” each time. The result with Avena fatua [5], in the series with Avena fatua [8], in the series with Avena fatua [9] and in the series on Avena fatua [15] was inactive.
On to `CNC(=O)CNC(=O)C(C)Oc1ccc(Oc2ncc(Cl)cc2Cl)cc1` (stereo not given), for which the Activity entry in the series with Triticum aestivum [4], in the series with Triticum aestivum [11], with Triticum aestivum [14] and with Triticum aestivum [12] was “Non-toxic” throughout. Besides, the outcome with Avena fatua [5], with Avena fatua [8], with Avena fatua [9] and with Avena fatua [15] was Active.
